Where two headings read alike, the source gives them in different places.
Legend:
[1] = system: patients with advanced solid tumors; experiment: Phase I dose escalation: MTD and DLT of oral once-daily apatinib; assay type: in vivo
Procedure: The phase I study was designed in accordance with the Chinese State Food and Drug Administration (SFDA) recommendations (Guidance for Industry, 2005). PK evaluations were to be performed for single-dosing and multiple-dosing of which the dose levels were determined after completion of dose-escalation. Three dose levels (low, intermediate and high dose) for single-dosing and one dose level (the recommended dose for phase II) for multiple-dosing study, between 8 to 12 participants for each dose levels, were required to meet the SFDA guidance. A cross-over design to evaluate the effects of food intake was incorporated into the single-dosing assessment, also meeting the SFDA requirement, but data will be presented separately.
Apatinib was provided by Advenchen Laboratories, LLC (Northridge, CA, USA) as capsule to be administered orally daily. A safe starting dose was determined in accordance with SFDA recommendations (Guidance for Industry 2005) following a previously established maximum-tolerated dose (MTD) in dogs for YN968D1 of above 30 mg/kg. Thus, in compliance with the SFDA's recommendation, the starting dose was determined to be 250 mg/day, corresponding to one-fourth of the MTD in dogs. (ClinicalTrials.gov number: NCT00633490).
Dose-escalation cohorts enrolled three to six patients. Intrapatient dose escalation was not allowed. […]

[2] = system: xenograft; parameters: method as in ref 8 = [8]; Chen P Iruela-Arispe L Lou L Sun P Yuan K VEGFr inhibitor YN968D1 xenograft dose response studies against human colon cancer Ls174t and HT29 Proc Amer Assoc Cancer Res 2006 47 abst 1764; conditions: xenograft study; cited from earlier work
[3] = Plasma pharmacokinetics after single and multiple oral doses (LC-MS/MS, non-compartmental analysis); assay type: in vivo, human; conditions: for Cmax / half-life / AUC(0-t) / Tmax: human, plasma; for AUC(0-t): read-out: AUC0-24, geometric mean; for Tmax: read-out: tmax, median
Procedure: The phase I study was designed in accordance with the Chinese State Food and Drug Administration (SFDA) recommendations (Guidance for Industry, 2005). PK evaluations were to be performed for single-dosing and multiple-dosing of which the dose levels were determined after completion of dose-escalation. Three dose levels (low, intermediate and high dose) for single-dosing and one dose level (the recommended dose for phase II) for multiple-dosing study, between 8 to 12 participants for each dose levels, were required to meet the SFDA guidance. A cross-over design to evaluate the effects of food intake was incorporated into the single-dosing assessment, also meeting the SFDA requirement, but data will be presented separately. […] Whole blood samples (1 ml) were collected at 0 (predose), 0.5, 1, 2, 3, 4, 6, 8, 12, 24, 32, and 48 hours for single-dosing evaluation and 0, 0.5, 1, 2, 3, 4, 6, 8, 12, and 24 hours (before the next dose) on days 1, 6, 28, and 56 for multiple-dosing evaluation. After the last dose on day 56, two additional samples were collected at 32 and 48 hours for multiple-dosing assessment. Plasma was collected from the blood samples following centrifugation, and stored at -80°C until analysis. […] The PK parameters, including area under the plasma concentration-time curve (AUC), maximum plasma concentration (Cmax), time to maximum concentration (tmax), and elimination half-life (t1/2) were determined by non-compartmental analysis using InnaPhase Kinetica 2000™ (InnaPhase Corp., Philadelphia, PA, USA). The linear-logarithmic trapezoidal method was used to calculate the AUC, and t1/2 λz was calculated by linear regression of the terminal slope of the logarithmic plasma concentration-time profile.

[4] = system: dogs; conditions: previously established; cited from earlier work
[5] = po, 500 mg, single oral dose 500 mg, n = 8
[6] = po, 750 mg, multiple oral dose of 750 mg, Day 1, n = 11
[7] = po, 750 mg, multiple oral dose of 750 mg, Day 6, n = 11
[8] = po, 750 mg, multiple oral dose of 750 mg, Day 28, n = 11
[9] = po, 750 mg, multiple oral dose of 750 mg, Day 56, n = 11
[10] = po, 750 mg, single oral dose 750 mg, n = 12
[11] = po, 850 mg, single oral dose 850 mg, n = 8

Question: Which results are given for N#CC1(c2ccc(NC(=O)c3cccnc3NCc3ccncc3)cc2)CCCC1 [apatinib]?
Answer: recommended (phase II) dose ([1]; human, in vivo, 4 weeks): 750 mg; maximum tolerated dose (MTD) ([1]; oral, once daily, patients): 850 mg; in vivo efficacy compared to valatinib [2]: superior in vivo efficacy; time to steady-state conditions ([3]; 750 mg once daily, multiple dosing): ≤ 6 days; Cmax ([3]; oral, 750 mg, after a single dose of 750 mg, read-out: Cmax values, variation between patients): 926 to 4620 ng/mL; half-life ([3]; oral, constant over the dose levels 500-850 mg, read-out: elimination half-life of the terminal phase (t1/2 λz) (converted)): 9 h; AUC(0-t) [3, 5]: 11300 ng·h/mL; Cmax ([3]; po, 500 mg, single oral dose 500 mg, n = 8, read-out: Cmax, geometric mean): 1520 ng/mL; half-life ([3]; po, 500 mg, single oral dose 500 mg, n = 8, read-out: t1/2λz, mean (converted)): 8.1 h; Tmax [3, 5]: 3.5 h; AUC(0-t) [3, 6]: 19400 ng·h/mL; Cmax ([3]; po, 750 mg, multiple oral dose of 750 mg, Day 1, n = 11, read-out: Cmax, geometric mean): 2420 ng/mL; half-life ([3]; po, 750 mg, multiple oral dose of 750 mg, Day 1, n = 11, read-out: t1/2λz, mean (converted)): 8.9 h; Tmax [3, 6]: 3 h; AUC(0-t) [3, 7]: 25400 ng·h/mL; Cmax ([3]; po, 750 mg, multiple oral dose of 750 mg, Day 6, n = 11, read-out: Cmax, geometric mean): 2550 ng/mL; half-life ([3]; po, 750 mg, multiple oral dose of 750 mg, Day 6, n = 11, read-out: t1/2λz, mean (converted)): 11 h; Tmax [3, 7]: 4 h; AUC(0-t) [3, 8]: 19900 ng·h/mL; Cmax ([3]; po, 750 mg, multiple oral dose of 750 mg, Day 28, n = 11, read-out: Cmax, geometric mean): 2210 ng/mL; half-life ([3]; po, 750 mg, multiple oral dose of 750 mg, Day 28, n = 11, read-out: t1/2λz, mean (converted)): 11.3 h; Tmax [3, 8]: 4 h; AUC(0-t) [3, 9]: 15600 ng·h/mL; Cmax ([3]; po, 750 mg, multiple oral dose of 750 mg, Day 56, n = 11, read-out: Cmax, geometric mean): 1850 ng/mL; half-life ([3]; po, 750 mg, multiple oral dose of 750 mg, Day 56, n = 11, read-out: t1/2λz, mean (converted)): 8.3 h; Tmax [3, 9]: 3 h; AUC(0-t) [3, 10]: 18200 ng·h/mL; Cmax ([3]; po, 750 mg, single oral dose 750 mg, n = 12, read-out: Cmax, geometric mean): 2380 ng/mL; half-life ([3]; po, 750 mg, single oral dose 750 mg, n = 12, read-out: t1/2λz, mean (converted)): 9 h; Tmax [3, 10]: 3 h; AUC(0-t) [3, 11]: 22000 ng·h/mL; Cmax ([3]; po, 850 mg, single oral dose 850 mg, n = 8, read-out: Cmax, geometric mean): 2830 ng/mL; half-life ([3]; po, 850 mg, single oral dose 850 mg, n = 8, read-out: t1/2λz, mean (converted)): 9.1 h; Tmax [3, 11]: 4 h; maximum-tolerated dose (MTD) in dogs [4]: above 30 mg/kg

Source: PMC2984425, “Safety and pharmacokinetics of novel selective vascular endothelial growth factor receptor-2 inhibitor YN968D1 in patients with advanced malignancies” (BMC Cancer, 2010)
